# According to ChEMBL document CHEMBL1151783 (Bioorg Med Chem Lett, 2008):
# Calls of active or inactive are those of the source. The rule behind the calls is not given here.
# Legend:
# Raji = experiment: Cytotoxicity against human Raji cells after 48 hrs by luminescence cell viability assay; format: functional, cell-based
# Vero [1] = experiment: Induction of apoptosis in african green monkey Vero cells assessed as caspase 3/7 activity after 18 hrs […]; format: functional, cell-based; settings: Chlorocebus sabaeus
# Vero [2] = experiment: Cell cycle arrest in african green monkey Vero cells assessed as accumulation at G2/M phase after 18 hrs by flow cytometry using propidium iodide staining; format: functional, cell-based; settings: Chlorocebus sabaeus
# Bos taurus [3] = organism: Bos taurus; experiment: Binding affinity to bovine tubulin at 10 uM after 2 hrs by fluorescence polarization assay
# HepG2 = experiment: Cytotoxicity against human HepG2 cells after 48 hrs by luminescence cell viability assay; format: functional, cell-based; settings: HepG2, 48 h
# [4] = Membrane permeability by PAMPA; format: ADME; settings: for Papp: read-out: permeability
# [5] = Displacement of [3H]colchicine from bovine tubulin after 2 hrs by fluorescence polarization assay; set-up: species or system Bos taurus
# [6] = Binding affinity to bovine tubulin after 2 hrs by fluorescence polarization assay; set-up: species or system Bos taurus
# Bos taurus [7] = organism: Bos taurus; experiment: Inhibition of bovine tubulin polymerization at 5 uM
# HeLa = experiment: Cytotoxicity against human HeLa cells after 48 hrs by luminescence cell viability assay; format: functional, cell-based
# [8] = Solubility in phosphate buffer saline after 2 hrs; format: physicochemical; settings: phosphate buffered saline
# Vero [9] = experiment: Cytotoxicity against african green monkey Vero cells after 48 hrs by luminescence cell viability assay; format: cell-based; settings: Chlorocebus sabaeus
# Bos taurus [10] = organism: Bos taurus; experiment: Inhibition of bovine tubulin polymerization at 10 uM
SMILES,EC50 (Raji),EC50 (Vero [1]),EC50 (Vero [2]),Activity (Bos taurus [3]),EC50 (HepG2),Papp [4],IC50 [5],Kd [6],Activity (Bos taurus [7]),EC50 (HeLa),solubility at 2 h [8],EC50 (Vero [9]),Activity (Bos taurus [10]),permeability [4]
COc1cc2c(c(OC)c1OC)-c1ccc(OC)c(=O)cc1[C@@H](NC(=O)CCC1=[N+]3C(=Cc4cccn4[B-]3(F)F)C=C1)CC2,138 nM,2.6 µM,0.96 µM,Active,180 nM,108 ×10⁻⁶ cm/s,3.9 µM,5.8 µM,Active,360 nM,32 µM,2300 nM,–,–
CC(=O)O[C@H]1C(=O)[C@@]2(C)[C@H]([C@H](OC(=O)c3ccccc3)[C@]3(O)C[C@H](OC(=O)[C@H](O)[C@@H](NC(=O)c4ccccc4)c4ccccc4)C(C)=C1C3(C)C)[C@]1(OC(C)=O)CO[C@@H]1C[C@@H]2O,–,–,–,–,–,–,–,–,–,–,–,–,inactive,–
COc1cc2c(c(OC)c1OC)-c1ccc(OC)c(=O)cc1[C@@H](NC(C)=O)CC2 [COLCHICINE],–,–,–,–,–,–,–,–,Active,–,> 250 µM,–,–,415 ×10⁻⁶ cm/s
COc1cc2c(c(OC)c1OC)-c1ccc(OC)c(=O)cc1[C@@H](NC(=O)CCCCCNC(=O)COc1ccc(/C=C/C3=[N+]4C(=Cc5ccc(-c6ccc[nH]6)n5[B-]4(F)F)C=C3)cc1)CC2,650 nM,10.5 µM,6.8 µM,–,1200 nM,< 10 ×10⁻⁶ cm/s,6.4 µM,7.6 µM,Active,1900 nM,< 10 µM,> 10000 nM,–,–
